Measured values from patent US20220339291A1, “ANTIBODY-DRUG CONJUGATES THAT TARGET DLK1 AND USES THEREOF” (LegoChem Biosciences, Inc., priority 2019, published 2022).
Like-named read-outs stand apart in the source and are kept apart here. Non-standard residues stand in square brackets, D forms with d. Residues, ends and D or L forms follow the SMILES beside them. Dolaproine = CO[C@@H]([C@@H]1CCCN1)[C@@H](C)C(=O)O; Dil = CC[C@H](C)[C@H](NC)[C@@H](CC(=O)O)OC; NMeV = CN[C@H](C(=O)O)C(C)C

Columns and labels:
[1] = tested on: MIA-PaCa2 (DLK1 negative or normal); assay: In vitro cytotoxicity (cell proliferation inhibition, SRB dye), DLK1-negative cells; format: cell-based, human
Experimental: (§1) The cancer cell line cell proliferation inhibition activity of the drugs stated in Table 3 below and the ADCs prepared in <Embodiment 3> above was measured. For this purpose, commercially available human pancreatic cancer cell line MIA-PaCa2 (DLK1 negative or normal) and MIA-PaCa-2-DLK1 over-expressing cell line were used. As the drug, MMAF-OMe was used as the ADC, and the ADCs of Table 2 were used. In a 96-well plate, each well was seeded with 4,000 to 5,000 of the respective cancer cell lines for the 72-hour treatment group, 2,000 to 3,000 cells for the 96-hour treatment group, and 800 to 1,000 cells for the 168-hour treatment group. After culturing for 24 hours, they were treated with the drug and ADC at a concentration of 0.0015 to 10.0 nM (serially diluted threefold). 72, 96 and 168 hours later, respectively, the number of live cells was measured using SRB (Sulforhodamine B) dye.

[2] = tested on: MIA-PaCa-2-DLK1 over-expressing cell line; assay: In vitro cytotoxicity (cell proliferation inhibition, SRB dye), DLK1 over-expressing cells; format: cell-based, human; conditions: MIA-PaCa2 DLK1 positive
Experimental: as §1

[3] = molecular target: T1, DLK1 over-expressed on MIA-PaCa-2 cells (UniProt P80370 24-383, limits assumed); assay: cell-based or functional assay
T1 sequence (looked up): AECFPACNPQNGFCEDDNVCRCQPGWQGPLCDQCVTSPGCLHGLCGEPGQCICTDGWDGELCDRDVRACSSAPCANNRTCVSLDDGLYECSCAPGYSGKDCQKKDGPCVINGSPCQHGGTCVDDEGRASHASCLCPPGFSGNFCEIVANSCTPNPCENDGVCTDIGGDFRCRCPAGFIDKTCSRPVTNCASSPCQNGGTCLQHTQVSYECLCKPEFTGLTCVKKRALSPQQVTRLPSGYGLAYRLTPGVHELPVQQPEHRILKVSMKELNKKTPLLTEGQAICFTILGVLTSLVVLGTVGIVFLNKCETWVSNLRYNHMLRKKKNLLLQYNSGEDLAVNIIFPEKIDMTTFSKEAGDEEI

[4] = tested on: cells where DLK1 is overexpressed; conditions: confirmed in Korean Patent Application No. 10-2018-0107639; cited from earlier work

## CC[C@H](C)[C@@H]([C@@H](CC(=O)N1CCC[C@H]1[C@H](OC)[C@@H](C)C(=O)N[C@@H](Cc1ccccc1)C(=O)OC)OC)N(C)C(=O)[C@@H](NC(=O)[C@@H](NC)C(C)C)C(C)C [MMAF-OMe] (H-[NMeV]V[Dil][Dolaproine]F-OMe)
[1]; 72 hr treatment, read-out: IC50 MIA-PaCa2-DLK1 negative 72 hr
  IC50: 0.41 nM
[1]; 96 h treatment, read-out: IC50 MIA-PaCa2-DLK1 negative 96 h
  IC50: 0.12 nM
[1]; 168 hr treatment, read-out: IC50 MIA-PaCa2-DLK1 negative 168 hr
  IC50: 0.12 nM
[2]; 72 hr treatment, read-out: IC50 MIA-PaCa2-DLK1 positive 72 hr
  IC50: 0.3 nM
[2]; 96 h treatment, read-out: IC50 MIA-PaCa2-DLK1 positive 96 h
  IC50: 0.13 nM
[2]; 168 hr treatment, read-out: IC50 MIA-PaCa2-DLK1 positive 168 hr
  IC50: 0.06 nM

B1: ADC6 (18A5 conjugated to Compound 6) (other)
VH: QVQLVQSGGAVVQPGHSLRLSCEASGFKFKDYGMHWVRQAPGKGLEWLAVISHDGRNKNYADSVKGRLTISRDNSKNTLSFQMNSLRAEDTAVYYCVRDWSYAFDIWGQGTLVTVSS
VL: DIQMTQSPSFLSASVGDRVNITCRASQDISRRLAWYQQKPGKAPKLLIYGAASLQSAVASRFSGSGSGTEFTLTISSLQPEDFANYYCQQIYTTPLTFGGGTKVEIK
[3]
  IC50 (nM), cell proliferation inhibition (SRB), MIA-PaCa2-DLK1 positive, 168 hr: 0.21 nM

B2: 18A5: anti-DLK1 human monoclonal antibody, heavy chain SEQ ID NO. 101, light chain SEQ ID NO. 102 (antibody, V domains shown)
VH: QVQLVQSGGAVVQPGHSLRLSCEASGFKFKDYGMHWVRQAPGKGLEWLAVISHDGRNKNYADSVKGRLTISRDNSKNTLSFQMNSLRAEDTAVYYCVRDWSYAFDIWGQGTLVTVSS
VL: DIQMTQSPSFLSASVGDRVNITCRASQDISRRLAWYQQKPGKAPKLLIYGAASLQSAVASRFSGSGSGTEFTLTISSLQPEDFANYYCQQIYTTPLTFGGGTKVEIK
[4]
  binding to cells where DLK1 is overexpressed: capable of binding to cells where DLK1 is overexpressed

B3: 18A5_AM_1A12: 18A5 mutant anti-DLK1 antibody, heavy chain SEQ ID NO. 127, light chain SEQ ID NO. 128 (antibody, V domains shown)
VH: QVQLVQSGGGVVQPGGSLRLSCAASGFKFKDYGMHWVRQAPGKGLEWLAVISHDGRNKNYADSVKGRLTISRDNSKNTLSFQMNSLRAEDTAVYYCVRDWSYAFDIWGQGTLVTVSS
VL: DIQMTQSPSFLSASVGDRVTITCRASHDISSSLAWYQQKSGKAPKLLIYSASNLKSGVPSRFSGSGSGTDFSLTISSLQPEDFATYYCQQSYTTVLTFGGGTKLEIK
[4]
  binding to cells where DLK1 is overexpressed: capable of binding to cells where DLK1 is overexpressed

B4: 18A5_LS_1A10: 18A5 mutant anti-DLK1 antibody, heavy chain SEQ ID NO. 101, light chain SEQ ID NO. 126 (antibody, V domains shown)
VH: QVQLVQSGGAVVQPGHSLRLSCEASGFKFKDYGMHWVRQAPGKGLEWLAVISHDGRNKNYADSVKGRLTISRDNSKNTLSFQMNSLRAEDTAVYYCVRDWSYAFDIWGQGTLVTVSS
VL: DIQMTQSPSSLSASLGDRVTITCRASQGISSALAWYQQKPGKAPKLLIYAASSLQSGVPSRFSGSGSGTDFTLTINSLQPEDFATYYCQQSYTTPLTFGGGTKVEIK
[4]
  binding to cells where DLK1 is overexpressed: capable of binding to cells where DLK1 is overexpressed

B5: 27F7: anti-DLK1 human monoclonal antibody, heavy chain SEQ ID NO. 109, light chain SEQ ID NO. 110 (antibody, V domains shown)
VH: QMQLVESGGGLVKPGGSLTLSCDATGFNFGSYYMNWVRQAPGKGLEWLAHISSTGRTIYYADSVKGRFTISRDNAKSSLDLQMNSLRAEDTAVYYCARDQGYPFGMDVWGHGTTVTVSS
VL: QLVLTQPSSVSGAPGQRVTISCTGSSSNIGAGYDVDWYQQLPGTAPKLLIYGNTNRPSGVPDRFSGSKSGTSASLAITGLQAEDDSDYYCQSYDSSLSAWVFGGGTKLTVL
[4]
  binding to cells where DLK1 is overexpressed: capable of binding to cells where DLK1 is overexpressed
